Key:
[1] = Volatility of UV absorbers: Thermogravimetric Analysis (TGA) T-10% values; assay type: physicochemical; settings: for T-10% (TGA, temperature required for 10% of the material to volatilize): Thermogravimetric Analysis
Description: One approach that has been taken to reduce the loss of absorbers from polymeric substrates has been to increase their molecular weight, either by using an absorber with attached high molecular weight groups, or by adding a group which will bind two or more absorbing nuclei in the same molecule, thus increasing molecular weight. U.S. Pat. No. 4,278,589 provides an example of the former approach, and describes benzotriazoles with large groups attached at the 3- and 5-positions. Of the latter approach, benzophenones, benzotriazoles and other molecules have been dimerized to reduce volatility. U.S. Pat. Nos. 5,108,835 and 4,948,666 describe articles with capstock layers stabilized by 2-hydroxyphenylbenzotriazoles which are bridged by various groups. One structure encompassed by the description is a 2-hydroxyphenylbenzotriazole bridged by a methylene group in the 3-position. These materials have relatively low volatility, as measured by the high temperature required for 10% of the materials to volatilize during Thermogravimetric Analysis. This temperature, known as the TGA T-10% value, is approximately 365° C. for the methylenebis{(5-tert-octyl-2-hydroxyphenyl)benzotriazole} known commercially as LA-31, Mixxim BB-100 or Tinuvin 360 (supplied by Asahi Denka, Fairmount Chemical and Ciba Specialty Chemicals, respectively), versus a TGA T-10% value of 245° C. for the non-dimerized (5-tert-octyl-2-hydroxyphenyl)benzotriazole known commercially as CYASORB® UV-5411. Also described have been 2,4-dihydroxybenzophenones which are dimerized by attachment through the 4-oxygen by an ether bond to two carbons of an aliphatic group. Compounds of this type have been described in U.S. Pat. Nos. 3,580,927 and 3,666,713 and CZ Appl. 135,115, JP Sho 47-48888, JP Sho 44-26456 and GB 1, 296,240. Capstock articles stabilized by some of these compounds, and a method for preparing the same are described in U.S. Pat. Nos. 5,445,872 and 5,306,456. Descriptions of benzotriazoles and benzophenones bridged by attachment of other groups may be found in U.S. Pat. Nos. 5,589,529 and 4,859,726 (for benzotriazoles) and JP Sho 57-12643 (for benzophenones). Many of the compounds described above, while solving the problem of volatility, have other limitations, including low solubility and high initial color when processed into the plastic substrate.
Volatility of UV Absorbers
Thermogravimetric Analysis (TGA) T-10% Values

[2] = Weathering resistance of polycarbonate plaques, 12-Month Florida Data; settings: for % Weathering Resistance: 0.35% additive in Lexan 121 PC, 12-Month Florida Data, [1-YI(additive)YI of Blank] × 100
Procedure: The performance of the additives was evaluated in comparison to the control (no stabilizer) by compounding into polycarbonate and studying the properties of the compounded plaques. Polycarbonate plaques were prepared by: (1) dry blending the additives at 0.35 weight % with GE Lexan 121-112 polycarbonate (2) extruding the blend in a Haake torque rheometer base using a 0.75 inch 25:1 single screw extruder −4 zone, single pass, at 50-65 RPM speed, with zone 1, zone 2, zone 3, and zone 4 temperatures at 265, 265, 270 and 275° C., respectively, (3) pulling through a water bath, (4) drying, (5) pelletizing, (6) redrying at 120° C. for 4-48 hours in a forced air oven, (7) injection molding in an Arburg ‘Allrounder’ hydraulic injection molder (2×2.5 0.100″ plaques). Temperatures used were as follows: nozzle, 275° C., nozzle side, 280° C., middle, 275° C., feed, 266° C., mold, 95° C. The plaques were irradiated in a Xenon Arc Weatherometer as described by ASTM G-26 Standard using Test Method B with alternate exposure to light and darkness and an intermittent exposure to water spray maintaining an atmosphere temperature of 63±3° C. and a relative humidity of 30±5% (Miami, Fla. conditions). Color (YI) was determined with a Macbeth Color Eye […] under Lab conditions with illuminate C, 2° observer, specular component excluded, and UV component included. Hydrolytic testing was performed by heating plaques with water at 120° C. for 6 hours in an All American Electric Pressure Sterilizer, Model No. 25×, measuring YI before and after treatment.
% Weathering Resistance of Plaques (0.35% Additive in Lexan® 121 PC)

[3] = Capstock weathering: Delta YI after xenon-arc weatherometer exposure; settings: 7% in Capstock PC-Lexan 105
Procedure: The performance of the compounds was evaluated in comparison to the control (no stabilizer) in a polycarbonate thin film laminated to an unstabilized polycarbonate plaque. The films were prepared by (1) dry blending the additives at 7 wt. % with Lexan 105 virgin flake and 0.1% Mark 2112 phosphite, (2) extruding the blend in a Haake torque rheometer base equipped with a 0.75 inch 25:1 single mixing screw extruder −4 zone, single pass at 55-65 rpm speed, with zone 1, zone 2, zone 3, and zone 4 temperatures at 246, 265, 295, and 304° C., respectively, (3) pulling through a water bath, (4) drying, (5) pelletizing, (6) redrying at 120° C. for 4-48 hours in a forced air oven, and (7) compression molding from compounded pellets into 2 mil films at 300° C. using a 30 second dwell hold without pressure, and a 30-second dwell hold with 35 kpsi pressure. […] The laminated sample plaques were exposed in the xenon-arc weatherometer as determined by ASTM G-26 Standard using Test Method B with alternate exposure to light and darkness and an intermittent exposure to water spray maintaining an atmosphere temperature of 63±3° C. and a relative humidity of 30±5% (Miami, Fla. conditions). Color (YI) was determined with a Macbeth Color Eye Colorimeter under Lab conditions with illuminate C, 2° observer, specular component excluded, and UV component included. […]

[4] = Solubility of compounds in organic solvents; settings: 25° C.

| Compound | T-10% (TGA, temperature required for 10% of the material to volatilize) [1] | Stability imparted to the polycarbonate system (in words) ([2]; 0.35% in Lexan 121 PC) | Stability imparted (in words) [3] | Solubility in 2-Butanone [4] | Solubility in Toluene [4] | Solubility characteristics (in words) ([4]; organic solvents) | TGA T-10% value [1] | Volatility (in words) ([1]; TGA, compared with non-dimerized counterpart) | % Weathering Resistance [2] |
| --- | --- | --- | --- | --- | --- | --- | --- | --- | --- |
| O=C(c1ccccc1)c1ccc(OCCO)cc1O [Compound B, 2-hydroxy-4-(hydroxyethoxy)benzophenone] | 257 °C |  |  |  |  |  |  |  |  |
| CC(C)(c1ccccc1)c1cc(-n2nc3ccccc3n2)c(O)c(C(C)(C)c2ccccc2)c1 [Compound C, 2-(3′,5′-bis(α,α-dimethylbenzyl)-2′hydroxyphenyl)benzotriazole] | 312 °C |  |  |  |  |  |  |  | 71% |
| CC(C)(C)CC(C)(C)c1ccc(O)c(-n2nc3ccccc3n2)c1 [Compound A, 2-(2′-hydroxy-5′-(1,1,3,3-tetramethylbutyl)phenyl)benzotriazole] | 245 °C |  |  |  |  |  | 245 °C |  |  |

The next lines start with results.

| T-10% (TGA, temperature required for 10% of the material to volatilize) [1] | Stability imparted to the polycarbonate system (in words) ([2]; 0.35% in Lexan 121 PC) | Stability imparted (in words) [3] | Solubility in 2-Butanone [4] | Solubility in Toluene [4] | Solubility characteristics (in words) ([4]; organic solvents) | TGA T-10% value [1] | Compound | Volatility (in words) ([1]; TGA, compared with non-dimerized counterpart) | % Weathering Resistance [2] |
| --- | --- | --- | --- | --- | --- | --- | --- | --- | --- |
| 350 °C | excellent stability | excellent stability | 2.69 g/100 g solvent | 1.26 g/100 g solvent | excellent solubility characteristics |  | O=C(OCCOc1ccc(C(=O)c2ccccc2)c(O)c1)OCCOc1ccc(C(=O)c2ccccc2)c(O)c1 [Compound D, {2-(3′-hydroxy-4′-benzoylphenoxy)ethyl}carbonate] | lower volatility than its non-dimerized counterpart | 71% |
| 357 °C |  |  | 0.37 g/100 g solvent | 0.52 g/100 g solvent |  |  | O=C(c1ccccc1)c1ccc(OCCCCCCOc2ccc(C(=O)c3ccccc3)c(O)c2)cc1O [Compound E, 1,6-bis(3′hydroxy-4′-benzoylphenoxy)hexane] |  | 69% |
|  |  |  |  |  |  | approximately 365 °C | CC(C)(C)CC(C)(C)c1cc(Cc2cc(C(C)(C)CC(C)(C)C)cc(-n3nc4ccccc4n3)c2O)c(O)c(-n2nc3ccccc3n2)c1 [Compound F] |  | 59% |

— US6537670B1, “Bis(alkyleneoxybenzophenone) ultraviolet light absorbers” (Cytec Technology Corp., priority 2000, dated 2003)
